# Reference: the METLIN SMRT retention time set (Domingo-Almenara et al. 2019)
# Assay: gradient 5% acetonitrile 3 min, to 50% in 2 min, to 85% in 15 min, held 3 min, 100 µL/min
# Details: column: Zorbax Extend-C18 2.1 x 50 mm; eluents: water / acetonitrile, 0.1% formic acid
# Procedure, shortened: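 Values are retention times taken from adduct peaks that software picked and an analyst inspected. The pure standards were run as mixtures of ~100 molecules on HPLC linked to a quadrupole time-of-flight mass spectrometer, in positive and negative ionization mode. A Zorbax Extend-C18 column (2.1 × 50 mm, 1.8 μm) was used at 100 μL/min with water and acetonitrile, each including 0.1% formic acid.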
row,RP-LC retention time [s],Structure (SMILES)
1,708,O=C(NCc1ccc(F)cc1Cl)c1cn2ccccc2n1
2,1020,Cc1cc(-c2nnc(-c3ccccc3)o2)c(C)n1CC(=O)Nc1ccc(Cl)cc1
3,1250,CCOc1nc2ccccc2nc1N1CCCC(C(=O)Nc2ccccc2OC)C1 (stereo unspecified)
4,831,CCc1nc2c(NC(=O)c3sccc3C)cccn2n1
5,1010,CCCCOc1ccc(-c2cc3c4nnc(CCC(=O)NCc5ccccc5C)n4ccn3n2)cc1
6,1200,CCc1nc(-c2cccc(C)c2)c(-c2ccnc(NC(=O)c3ccccc3)c2)s1
7,763,Cc1ccccc1CC(=O)NC(CC(C)C)C(=O)Nc1nc2ccccc2[nH]1 (stereo unspecified)
8,661,CCOc1ccc(S(=O)(=O)Nc2ccc(-c3cn4ccccc4n3)cc2)cc1
9,732,Cc1noc2ncn(CC(=O)Nc3ccccc3F)c(=O)c12
10,856,O=C(Cn1ccn2nc(-c3ccccc3)c(CO)c2c1=O)Nc1ccc(Cl)cc1
11,913,O=C(NC1CCN(c2cc(-c3ccc(Cl)cc3)[nH]n2)C1)c1ccc(Br)cc1 (stereo unspecified)
12,728,Cc1nnc2c(=O)n(CC(=O)NCc3ccc(C(F)(F)F)cc3)c3cccnc3n12
13,949,Cc1ccc(CNC(=O)Cn2c(C)cc(-c3nnc(-c4ccccc4)o3)c2C)cc1
14,833,Cc1ccc(-c2nc(N3CCCCCC3)c3ccccc3n2)cc1
15,808,O=C(Nc1ccccn1)c1csc2nc(-c3ccc(F)cc3)cn12
16,891,COc1ccccc1Nc1nc(-c2ccccc2)c(CC(=O)O)s1
17,924,Cc1ccsc1C(=O)N1CCc2cc(-c3ccno3)ccc21
18,768,Cc1ccc(NC(=O)c2ccccc2C(=O)O)cc1Br
19,945,O=c1c2nc(-c3ccc(F)cc3)cn2ccn1-c1ccc2c(c1)CCC2
20,1030,CCCN1C(=O)c2cc(S(=O)(=O)Nc3ccccc3F)ccc2Oc2cccnc21
21,710,COc1ccc(OCc2nnc3sc(-c4ccncc4)nn23)cc1
22,1040,COc1ccccc1-c1nn2c(-c3ccc4ccccc4n3)nnc2s1
23,924,Cn1nnc2ccc(-c3noc(COc4ccc(F)cc4)n3)cc21
24,652,COC(=O)c1ccc(NC(=O)N2CCC(n3cnc4cccnc43)CC2)cc1
25,1130,COC(=O)/C(=C1/OC(=O)C(c2ccccc2)=C1O)c1ccccc1
26,997,Cc1ccccc1Nc1c(-c2c(F)cccc2Cl)nc2ccc(Br)cn12
27,1030,O=C(NCc1nc(-c2ccc(-c3csc(C4CC4)n3)cc2)no1)c1ccccc1
28,780,Cn1c(-c2cccc(C(=O)NC3CCCCCC3)c2)nc2cccnc21
29,805,O=C(NCc1[nH]nc2ccccc12)c1cccc(Cl)c1
30,623,O=C(NCc1ccc(Br)cc1)C1CCCN(C(=O)c2cc(-c3ccncc3)n[nH]2)C1 (stereo unspecified)

# Second part, the molecule before the results:
row,Structure (SMILES),RP-LC retention time [s]
1,CC(C)Oc1ccc(CNC(=O)C2CCN(c3nnc4ccccn34)CC2)cc1,685
2,CCNC(=O)C1CCCN(c2nc3ncn(CC(=O)Nc4ccc(Cl)cc4F)c(=O)c3s2)C1 (stereo unspecified),709
3,CSc1cccc(NC(=O)c2cn3c(n2)CCCC3)c1,630
4,O=C(Cc1cccs1)Nc1onc2c1CCCC2,730
5,CCc1ccccc1NC(=O)C1CCN(S(=O)(=O)c2ccc3c(c2)NC(=O)C(C)O3)CC1 (stereo unspecified),838
6,Cc1ccccc1S(=O)(=O)N1CCC(c2noc(-c3cccnc3)n2)C1 (stereo unspecified),908
7,CC1=C(C(=O)OC(C)C)C(c2cccc([N+](=O)[O-])c2)C(C(=O)OC2CN(C(c3ccccc3)c3ccccc3)C2)=C(N)N1 (stereo unspecified),947
8,COc1ccc(OC)c(S(=O)(=O)N2C[C@@H](F)C[C@H]2C(=O)N2CCc3ccccc3C2)c1,829
9,CNC(=O)Nc1ccc(C2(C(=O)N3CCN(c4ccccc4F)CC3)CCC2)cc1,799
10,CCN1CCC2(CC1)OC(=O)C(C)=C2C(=O)NCCc1ccccc1,617
11,CN(CC1(C)CCOCC1)C(=O)NCc1ccco1,649
12,CCOCCCNC(=O)Cc1c(C)n(C)c2nc(-c3ccccc3)nn2c1=O,649
13,COc1cc(-c2nc(Cn3cnc4ccccc4c3=O)no2)cc(OC)c1OC,795
14,CCCNC(=O)C1CCCN(c2nc3ncn(CC(=O)NCc4ccc(C)cc4)c(=O)c3s2)C1 (stereo unspecified),715
15,CC(C)CC(NC(=O)C1CCC(C)CC1)C(=O)N1CCN(c2ccccn2)CC1 (stereo unspecified),693
16,O=C(c1ccc(Br)cc1)N1CCN(c2nnc3ccccn23)CC1,653
17,CC(C)C(=O)N1CCN(c2ccc(=O)n(-c3ccc(Cl)cc3)n2)CC1,767
18,O=C1NCCCn2cc(S(=O)(=O)Nc3ccc4c(c3)OCCO4)cc21,622
19,CCn1c(=O)sc2cc(S(=O)(=O)N3CCC(C(=O)NCC4CCCO4)CC3)ccc21 (stereo unspecified),719
20,COc1cccc(S(=O)(=O)N2CCC(n3c(C)cnc3C3CC3)C2)c1 (stereo unspecified),587
21,Cc1nc(CCNC(=O)Cc2cccs2)no1,646

row,Structure (SMILES),RP-LC retention time [s]
1,Cc1ccc(F)cc1S(=O)(=O)NC1CCN(c2ccccc2)C1=O (stereo unspecified),928
2,O=C(Cn1cccc1-c1nc(-c2ccc3c(c2)OCO3)no1)NC1CCCCC1,1030
3,CCCNC(=O)C1CCCN1S(=O)(=O)c1cc(C(=O)OCC)n(C)c1 (stereo unspecified),762
4,CCn1cc(C2=CCN(S(=O)(=O)c3cccc(C)c3)CC2)c2cccnc21,1040
5,CCNC(=O)CC1=C2CCCCC2N(C(C)C)C1=O (stereo unspecified),671
6,Cc1cc(S(=O)(=O)N2CCC(n3cnnc3C)CC2)ccc1F,702
7,COc1ccc(NC(=O)N2CCC3(C2)C(=O)Nc2ccccc23)c(OC)c1 (stereo unspecified),678
8,CCCONC(=O)Nc1ccccc1[N+](=O)[O-],787
9,CC1=C(C(=O)N(CC(=O)NC2CCC(C)CC2)c2ccc(Cl)cc2)SCCO1 (stereo unspecified),1040
10,COCCCNC(=O)c1nc2cccnc2n(CC(C)C)c1=O,728
11,O=C(NCc1cccnc1)C1c2ccccc2C(=O)N(C2CCCC2)C1c1cccs1 (stereo unspecified),591
12,N#CC1=CN(c2ccc3c(c2)CCC3)c2ccccc2S1(=O)=O,1010
13,CCOc1ccc(Cc2nc(-c3cccc(-c4ccnn4C)c3)no2)cc1OCC,1090
14,O=C(Nc1ccccc1)N1CCC(N2CCN(Cc3cccc(F)c3)C(=O)C2=O)CC1,691
15,CCN1c2ccc(F)cc2C(=O)NC12CCN(C(=O)Cc1ccc(C)cc1)CC2,853
16,Clc1ccc(-c2ccc(CNCc3ccco3)o2)c(Cl)c1,743
17,COCC(=O)N1C[C@@H]2C(=O)N(CCc3ccccc3)C(=O)[C@@H]2C1,662
18,CCCNc1cc(N2CCC(CCC(=O)Nc3ccc(OC)cc3)CC2)ncn1,682
19,CC(=O)N1CCc2sc(C(=O)N3CCN(c4ccccn4)CC3)cc2C1,575
20,CCOCCCNC(=O)CN1c2ccc(CC)cc2-c2ccccc2S1(=O)=O,926
21,CCn1ccc2sc(C)c(C(=O)NCc3cccc(Cl)c3)c2c1=O,926

row,Structure (SMILES),RP-LC retention time [s]
1,CCCC(=O)Nc1cc2c(cc1N1CCC(C)CC1)n(C)c(=O)c(=O)n2C,820
2,COc1ccccc1OCC1c2ccsc2CCN1C(=O)CN(CC1CC1)C(=O)NC(C)C (stereo unspecified),919
3,COc1ccc(-c2cc3n(n2)CCCN(S(=O)(=O)c2cccc(C#N)c2)C3)cc1OC,814
4,CCOc1ccc(N2CC(c3nc(-c4ccc(OC)cc4)no3)CC2=O)cc1 (stereo unspecified),972
5,COC(=O)c1ccc(CN2CCN(CCN3C(=O)C4C5C=CC(C5)C4C3=O)CC2)cc1 (stereo unspecified),561
6,CC(=O)c1ccc(NC(=O)N(C)C)cc1,588
7,COCc1cn(C2CN(C(=O)C3(c4ccccc4)CC3)C2)nn1,688
8,C=C(C)Cn1c(COc2ccccc2)nc2ccccc21,718
9,O=S1(=O)C[C@H](N2CCN(Cc3ccccc3)CC2)[C@@H](S(=O)(=O)c2ccc(F)cc2)C1,647
10,NC(=O)C1CCN(C(=O)CCn2ccn3nc(-c4ccccc4)cc3c2=O)CC1,638
11,CCOC(=O)c1[nH]c(C)c(CN(Cc2ccco2)C(=O)Nc2ccccc2F)c1C,976
12,COc1ccc(Cl)cc1S(=O)(=O)NCCc1c[nH]c2ncccc12,654
13,COc1ccccc1CNC(=O)c1ccc2c(c1)N(C)C(=O)C1CCCCN21 (stereo unspecified),880
14,O=S(=O)(c1ccc(-c2noc(COc3ccc(Cl)cc3)n2)cc1)N1CCCC1,1170
15,CCC(=O)N1CCc2sc(C(=O)N3CCN(c4ccc(Cl)cc4)CC3)cc2C1,899
16,CCS(=O)(=O)N1CCC2(CC1)C(OC)CN2c1cccc(F)c1 (stereo unspecified),965
17,CC(=O)Nc1cccc2c(C(=O)NC3CCCC3)ccnc12,719
18,O=C(CN1C(=O)NC2(CCCCC2)C1=O)NCCc1ccc(Cl)cc1,790
19,CCc1ccc(C2=C(C)C(N3CCCN(C(=O)CC4CCCC4)CC3)=NS2(=O)=O)cc1,984
